Source: patent US10214491B2, “Activators and therapeutic applications thereof” (THE JOHNS HOPKINS UNIVERSITY, priority 2007, dated 2019)
pIC50: −log10 of the molar value.

Assays:
[1] = system: p53, Mdm2 and p21 levels in A375 melanoma cells; test: Immunoblotting and immunofluorescence for p53, Mdm2 and p21 levels; format: cell-based; conditions: A375, 24 hours
Procedure: To study the effect of compounds on endogenous protein levels, A375 melanoma cells were treated with the compounds for 24 hours. Cellular lysates were prepared in lysis buffer containing 0.5% NP-40 with proteinase inhibitors. Protein (20-30 μg) was separated by sodium dodecyl sulphate-polyacrylamide gel electrophoresis (SDS-PAGE) followed by transfer to PVDF membrane (Immobilon™-P, Millipore, Bedford, Mass., USA). Immunoblotting was carried out using DO-1 antibody for p53, 2A10 for Mdm2 and anti-p21 (Becton Dickinson) to detect p21, followed by secondary antibodies conjugated with horseradish peroxidase (p53) or biotin followed by streptavidin-horseradish peroxidase (Mdm2 and p21) after which proteins were detected with enhanced chemiluminescence (ECL, Amersham Life Sciences). Equal protein loading was verified using GAPDH (p9.B.88, Europa Bioproducts Ltd, UK) as a protein loading control.
Immunofluorescence staining was carried out to determine the correct localisation of p53 and to detect H2AX phosphorylation indicative of genotoxic stress. Cells were treated with the compounds and fixed in paraformaldehyde (3.5 PFA, 25 min RT). The coverslips were permeabilised in 0.5% NP-40 and blocked in 3% bovine serum albumin (BSA). p53 was detected by staining with FL-393 antibody (Santa Cruz, 1:50, 1 h at +37° C.) followed by Alexa-594 conjugated secondary antibody (Molecular Probes, 1:200, 1 h at +37° C.), phospho-H2AX was detected by staining with anti-H2AX (P-Ser-139) antibody (Upstate, 1:200 1 h at +37° C.) followed by Alexa-488 conjugated secondary antibody (Molecular Probes, 1:200, 1 h at +37° C.). Nuclei were stained with Hoechst 33342. Images were captured using the Zeiss Axioplan fluorescence microscope equipped with Zeiss AxioCam HRc CCD-camera and AxioVision 4.5 software using 40×, NA=0,75 objective, Chroma 31000, Chroma41001 and 41004 filters for Hoechst, Alexa488 and Alexa594, respectively.

[2] = system: normal human primary melanocytes; test: WST-1 cell viability assay, melanocytes; format: cell-based; conditions: Homo sapiens, 72 h, Melanocyte, three days
Procedure: The effect of the compounds selected using the screening assay on the viability of several tumor cell lines as well as diploid cell lines and cell strains was studied. Cells were plated in 96-well plates at a density of 10,000 cells/100 μL/well and were incubated overnight. The following day compound dilutions ranging from 0 to 40 μM were applied to the cells in triplicate and the cells were incubated with the compounds for three days. Cell viability was assayed using the WST-1 cell proliferation reagent (Roche Diagnostics, Germany) The WST-1 reagent was diluted 1:10 in cell culture media and 100 μL of the reagent dilution was applied onto cells followed by 1 hour incubation at +37° C. The specific absorbance was measured at 450 nm and a reference absorbance was measured at 690 nm. […] Analysis for Protein Levels

Row | SMILES | Mdm2 induction ([1]; 0.5 μM) | induction of p21 cyclin kinase inhibitor ([1]; 0.5 μM) | pIC50 [2] | Mdm2 induction ([1]; 5 μM)
1 | CN(C)CCNC(=O)c1cccn2c(=O)c3cc4ccccc4cc3nc12 [Compound 21] | most prominent | most prominent | < 4.40 | 
2 | Cc1cc(C)c2nc3nc(C)cc(C)c3c(N)c2c1 [Compound 22, 2,4,7,9-tetramethylbenzo[b]-1,8-naphthyridin-5-amine] |  |  | 4.49 | most prominent
